The target of one data set is P2Y purinoceptor 6 (Homo sapiens, UniProt Q15077).
A short description of data set [1]: Half life in Sprague-Dawley rat at 10 mg/kg, po measured for 24 hrs. It counts as ADME, organism-based. Particulars: in vivo.
Data set [2] is described as follows: Aqueous solubility of the compound in double distilled water at pH 7 incubated for 24 hrs by UV-3000 absorption spectrometry analysis. It counts as physicochemical.
Data set [3] can be described thus: Half life in Sprague-Dawley rat at 2.5 mg/kg, iv measured for 24 hrs. The format is ADME, organism-based. To be noted: in vivo.
The nature of data set [4]: Aqueous solubility of the compound in simulated gastric fluid without pepsin at pH 1.2 incubated for 24 hrs by UV-3000 absorption spectrometry analysis. It counts as physicochemical.
A short description of data set [5]: AUC (0 to infinity) in Sprague-Dawley rat at 2.5 mg/kg, iv measured for 24 hrs. Particulars: in vivo. The format is ADME, organism-based. Also on record: time 24 hrs, dose 2.5 mg/kg, route iv.
Data set [6] in a line: Aqueous solubility of the compound in simulated intestinal fluid without trypsin at pH 6.8 incubated for 24 hrs by UV-3000 absorption spectrometry analysis. The format is physicochemical.
The nature of data set [7]: Metabolic stability in rat liver microsomes assessed as half life at 2 ug/ml preincubated for 5 mins followed by NADPH addition and measured upto 45 mins by LC-MS/MS analysis. The format is ADME, Microsome. To be noted: dose 2 µg/ml, time < 50 min.
Data set [8] in a line: Oral bioavailability in Sprague-Dawley rat at 10 mg/kg measured for 24 hrs. The format is ADME, organism-based. Particulars: in vivo.
Data set [9] in a line: Cmax in Sprague-Dawley rat at 10 mg/kg, po measured for 24 hrs. Particulars: in vivo. Also on record: time 24 hrs, dose 10 mg/kg, route po. It counts as ADME, organism-based.
The nature of data set [10]: Clearance in Sprague-Dawley rat at 2.5 mg/kg, iv measured for 24 hrs. The format is ADME, organism-based. Particulars: in vivo.
A short description of data set [11]: Metabolic stability in rat liver microsomes assessed as elimination rate constant at 2 ug/ml preincubated for 5 mins followed by NADPH addition and measured upto 45 mins by LC-MS/MS analysis. It counts as ADME, Microsome. Particulars: dose 2 µg/ml, time < 50 min.
A short description of data set [12]: Metabolic stability in human liver microsomes assessed as elimination rate constant at 2 ug/ml preincubated for 5 mins followed by NADPH addition and measured upto 45 mins by LC-MS/MS analysis. The format is ADME, Microsome. Particulars: dose 2 µg/ml, time < 50 min.
Data set [13] can be described thus: Tmax in Sprague-Dawley rat at 10 mg/kg, po measured for 24 hrs. It counts as ADME, organism-based. To be noted: in vivo.
The nature of data set [14]: Aqueous solubility of the compound in PBS at pH 7.4 incubated for 24 hrs by UV-3000 absorption spectrometry analysis. The format is physicochemical.
Data set [15] in a line: Clearance in Sprague-Dawley rat at 10 mg/kg, po measured for 24 hrs. It counts as ADME, organism-based. Particulars: in vivo.
Data set [16] in a line: Metabolic stability in human liver microsomes assessed as half life at 2 ug/ml preincubated for 5 mins followed by NADPH addition and measured upto 45 mins by LC-MS/MS analysis. It counts as ADME, Microsome. To be noted: dose 2 µg/ml, time < 50 min.
Data set [17] in a line: AUC (0 to infinity) in Sprague-Dawley rat at 10 mg/kg, po measured for 24 hrs. It counts as ADME, organism-based. Details: dose 10 mg/kg, time 24 hrs, route po. To be noted: in vivo.
In data set [18] the target is T1, P2Y purinoceptor 14 (Homo sapiens) (UniProt Q15391).
T1 sequence (whole entry): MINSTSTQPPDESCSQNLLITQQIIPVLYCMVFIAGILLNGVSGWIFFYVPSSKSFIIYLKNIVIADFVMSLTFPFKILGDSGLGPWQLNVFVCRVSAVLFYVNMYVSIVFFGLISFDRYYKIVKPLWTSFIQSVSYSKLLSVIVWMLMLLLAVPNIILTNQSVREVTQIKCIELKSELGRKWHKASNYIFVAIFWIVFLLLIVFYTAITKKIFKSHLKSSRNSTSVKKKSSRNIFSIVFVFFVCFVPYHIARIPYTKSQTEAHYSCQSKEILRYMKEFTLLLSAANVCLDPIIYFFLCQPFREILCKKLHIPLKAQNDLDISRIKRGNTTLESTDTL

In a further data set the target is T2, P2Y purinoceptor 14 (Homo sapiens, UniProt Q15391).
T2 sequence (Q15391 whole entry): T1 sequence (whole entry)
The data set is described as follows: Antagonist activity at P2Y14R (unknown origin) expressed in HEK293 cells assessed as inhibition of forskolin-stimulated cAMP accumulation incubated in presence of IBMX by cAMP-glo assay. The format is functional, cell-based.

For the next data set, the target named is P2Y purinoceptor 4 (Homo sapiens, UniProt P51582).
Sequence of P2Y purinoceptor 4 (P51582 whole entry): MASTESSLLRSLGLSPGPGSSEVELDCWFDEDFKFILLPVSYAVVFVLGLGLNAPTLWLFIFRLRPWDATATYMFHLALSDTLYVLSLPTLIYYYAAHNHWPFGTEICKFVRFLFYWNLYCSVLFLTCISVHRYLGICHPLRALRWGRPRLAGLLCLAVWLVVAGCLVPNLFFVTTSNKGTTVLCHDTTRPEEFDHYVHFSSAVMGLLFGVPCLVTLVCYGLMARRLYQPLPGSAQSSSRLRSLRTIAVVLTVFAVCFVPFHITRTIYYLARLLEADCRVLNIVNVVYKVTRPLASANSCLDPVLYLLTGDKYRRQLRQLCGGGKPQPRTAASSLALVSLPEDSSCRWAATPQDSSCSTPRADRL
Data set [19] is described as follows: Inhibition of caspase-1 mediated pyroptosis in LPS/ATP induced PMA-differentiated human THP-1 cells assessed as dead cells at 10 uM pretreated for 24 hrs followed by LPS addition for 3 hrs and further incubated for 1 hr with ATP by caspase-1/PI staining based flow cytometry analysis (reference value: 22.5%). It counts as functional. Details: scale not given: the % may be the effect or the level left. To be noted: time 28 hrs.

Data set [20] is described as follows: Inhibition of caspase-1 mediated pyroptosis in LPS/ATP induced PMA-differentiated human THP-1 cells assessed as early apoptotic cells at 10 uM pretreated for 24 hrs followed by LPS addition for 3 hrs and further incubated for 1 hr with ATP by caspase-1/PI staining based flow cytometry analysis (reference value: 17.9%). The format is functional. Details: scale not given: the % may be the effect or the level left. To be noted: time 28 hrs.

Data set [21] is described as follows: Inhibition of caspase-1 mediated pyroptosis in LPS/ATP induced PMA-differentiated human THP-1 cells assessed as live cells at 10 uM pretreated for 24 hrs followed by LPS addition for 3 hrs and further incubated for 1 hr with ATP by caspase-1/PI staining based flow cytometry analysis (reference value: 43.3%). It counts as functional. Particulars: time 28 hrs. Details: scale not given: the % may be the effect or the level left.

A further data set addresses P2Y purinoceptor 12 (Homo sapiens, UniProt Q9H244). The data set is described as follows: Antagonist activity at P2Y12R (unknown origin) expressed in CHO cells assessed as inhibition of forskolin-stimulated cAMP accumulation incubated for 15 mins in presence of IBMX by chromatography. It counts as functional, cell-based.
Data set [22] is described as follows: Inhibition of caspase-1 mediated pyroptosis in LPS/ATP induced PMA-differentiated human THP-1 cells assessed as late apoptotic cells at 10 uM pretreated for 24 hrs followed by LPS addition for 3 hrs and further incubated for 1 hr with ATP by caspase-1/PI staining based flow cytometry analysis (reference value: 16.3%). Also on record: scale not given: the % may be the effect or the level left. The format is functional. Particulars: time 28 hrs.

The mark [23] stands for this setting: HEK293, filed as antagonist, dose 100.0 nM.

Converted amounts (≈) assume the structure as drawn.

Sequence of P2Y purinoceptor 12 (Q9H244 whole entry): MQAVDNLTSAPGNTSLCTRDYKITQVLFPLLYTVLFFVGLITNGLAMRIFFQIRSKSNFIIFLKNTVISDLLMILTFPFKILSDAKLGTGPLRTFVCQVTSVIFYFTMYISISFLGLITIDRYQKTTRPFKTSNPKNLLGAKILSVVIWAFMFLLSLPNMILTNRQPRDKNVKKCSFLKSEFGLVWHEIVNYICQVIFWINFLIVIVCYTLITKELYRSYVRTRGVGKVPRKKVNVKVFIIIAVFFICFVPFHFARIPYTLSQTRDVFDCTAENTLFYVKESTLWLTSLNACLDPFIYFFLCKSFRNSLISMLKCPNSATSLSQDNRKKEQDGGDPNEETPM
Sequence of P2Y purinoceptor 6 (Q15077 whole entry): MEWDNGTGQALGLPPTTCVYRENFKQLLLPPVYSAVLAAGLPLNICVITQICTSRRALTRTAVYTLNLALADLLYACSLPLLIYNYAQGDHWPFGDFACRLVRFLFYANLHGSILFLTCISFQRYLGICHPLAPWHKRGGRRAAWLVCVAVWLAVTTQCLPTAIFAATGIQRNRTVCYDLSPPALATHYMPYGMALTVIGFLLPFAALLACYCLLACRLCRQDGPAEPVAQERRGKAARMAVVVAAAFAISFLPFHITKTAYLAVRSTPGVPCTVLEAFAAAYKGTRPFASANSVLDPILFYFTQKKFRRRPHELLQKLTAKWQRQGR

As for `S=C=Nc1cccc(NC(=S)NCCCCNC(=S)Nc2cccc(N=C=S)c2)c1`, the midpoint of inhibition at P2Y purinoceptor 6, the IC50, lay at 39500 nM.
`Cc1ccc(C(=O)Nc2cc(C(=O)O)nn2Cc2ccc(F)cc2)cc1`: the figures for the half-life in data set [1] and in data set [3] were 4.57 h and 1.82 h, respectively. The solubility in data set [2] (buffer, pH 7, 24 h) is 88.5 µg/mL (≈ 250 µM); in [4] (simulated gi fluid, pH 1.2, 24 h) it was 85.1 µg/mL (≈ 241 µM); in data set [6] (simulated gi fluid, pH 6.8, 24 h), 202.7 µg/mL (≈ 574 µM); in data set [14] (buffer, pH 7.4, 24 h), 318.7 µg/mL (≈ 902 µM). Moreover, the AUC(0-inf) in data set [5] was 2600 ng·h/mL; in data set [17], 4500 ng·h/mL. Also, the results for the half-life at 2 ug/ml in [7] and in data set [16] were 2.88 h and 21 h, respectively. This compound gave a bioavailability in data set [8] of 43.2%. This compound came in with a Cmax in [9] of 1100 ng/mL. In data set [10], the clearance was 16.3 mL/min/kg. The k el at 0.75 h, 2 ug/ml in data set [11] was 6.67e-05 s⁻¹; in data set [12], 8.33e-06 s⁻¹. Moreover, in data set [13], the Tmax is 0.25 h. Further, in data set [15], the CL/F turned out to be 32.5 mL/min/kg.
In data set [18] (setting [23]), `Cc1ccc(C(=O)Nc2cc(C(=O)O)nn2Cc2ccccc2C(F)(F)F)cc1` had an inhibition of 93%. Further, the IC50 on P2Y purinoceptor 14 worked out at 4.83 nM.
The matching figures for `Cc1ccc(C(=O)Nc2cc(C(=O)O)nn2Cc2cc(F)c(F)c(F)c2)cc1`: 90.3% and 4.01 nM.
Take `Cc1ccc(C(=O)Nc2cc(C(=O)O)nn2Cc2cccc(F)c2)cc1`: the inhibition in data set [18] (setting [23]) turned out to be 89%. Besides, on P2Y purinoceptor 14, the IC50 is 5.39 nM.
`O=C(Nc1cc(C(=O)O)nn1Cc1ccc(F)cc1)c1cccnc1` showed an inhibition in data set [18] (HEK293, dose 100.0 nM) of 27.4%.
As for `O=C(Nc1cc(C(=O)O)nn1Cc1ccc(F)cc1)c1ccncc1`, the inhibition in data set [18] (HEK293, dose 100.0 nM) was determined as 32.5%.
In turn, `CC(C)(C)c1ccc(C(=O)Nc2cc(C(=O)O)nn2Cc2ccc(F)cc2)cc1` returned an inhibition in data set [18] (HEK293, dose 100.0 nM) of 3.05%.
In the case of `CC(=O)c1ccc(Cn2nc(C(=O)O)cc2NC(=O)c2ccc(C)cc2)cc1`, the inhibition in [18] (setting [23]) was determined as 66.3%. Further, on P2Y purinoceptor 14, the IC50 turned out to be 67 nM.
Regarding `CC(=O)c1ccc(C(=O)Nc2cc(C(=O)O)nn2Cc2ccc(F)cc2)cc1`, the inhibition in [18] (setting [23]) was found to be 98.2%. In addition, the IC50 at P2Y purinoceptor 14 is 3.81 nM.
In data set [18] (setting [23]), `CCc1ccc(C(=O)Nc2cc(C(=O)O)nn2Cc2ccc(F)cc2)cc1` gave an inhibition of 97.9%. In addition, the IC50 at P2Y purinoceptor 14 worked out at 4.65 nM.
The matching figures for `Cc1ccc(C(=O)Nc2cc(C(=O)O)nn2Cc2cc(F)cc(F)c2)cc1`: 79.8% and 41 nM.
Take `Cc1ccc(CC(=O)Nc2cc(C(=O)O)nn2Cc2ccc(F)cc2)cc1`: in [18] (HEK293, dose 100.0 nM), the inhibition was determined as 28.5%.
For the compound `O=C(C1CC1)N1CCc2cc(Br)c(S(=O)(=O)Nc3ccc(Cl)c(C(F)(F)F)c3)cc21`, the IC50 against P2Y purinoceptor 4 was 13600 nM.
Regarding `O=C(O)c1cc(-c2ccc(C3CCNCC3)cc2)c2ccc(-c3ccc(C(F)(F)F)cc3)cc2c1` [PPTN], the solubility at 24 h is below 5 µg/mL in [2] (double distilled water, pH 7); below 5 µg/mL in data set [4] (simulated gastric fluid without pepsin, pH 1.2); below 5 µg/mL in [6] (simulated intestinal fluid without trypsin, pH 6.8); below 5 µg/mL in data set [14] (PBS, pH 7.4). Moreover, the Activity turned out to be 11.2% in [19], 4.68% in data set [20], 79.8% in data set [21] and 4.33% in data set [22]. In data set [8], this compound displayed a bioavailability of 5%. Also, the IC50 at P2Y purinoceptor 12 was above 10000 nM. For the same compound, the half-life at 2 ug/ml in [16] came out at 0.767 h.
In turn, `O=C(Nc1cc(C(=O)O)nn1Cc1ccc(F)cc1)c1ccc(C(F)(F)F)cc1` registered an inhibition in [18] (HEK293, dose 100.0 nM) of 31.4%.
